Measured values: PubChem BioAssay AID330 (DTP/NCI, 2004)
Several values for one entry are separate records, joined by “and”; a condition that tells them apart may be missing. Identical values can stand only once. Inconclusive results and toxic doses are left out. Rule for the calls: active = survival T/C of 150% or more; inactive = T/C below 125% in these data.

Test system: P388 leukemia ip, CD2F1 mice, survival T/C
Assay: NCI In Vivo Anticancer Drug Screen. Data for tumor model P388 Leukemia (intraperitoneal) in CD2F1 (CDF1) mice
Details: endpoint: median survival time, higher = longer survival
Method in brief: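 Mice carrying the transplanted tumor received test compound or vehicle. Survival was recorded in each group, and the value is the treated-group measurement divided by that of the vehicle-treated control group.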

[1] = dose: 12.5 mg/kg/injection, schedule: Q01DX009 (ip), vehicle: water
[2] = dose: 25.0 mg/kg/injection, schedule: Q01DX009 (ip), vehicle: water
[3] = dose: 50.0 mg/kg/injection, schedule: Q01DX009 (ip), vehicle: water
[4] = dose: 100.0 mg/kg/injection, schedule: Q01DX009 (ip), vehicle: water
[5] = dose: 200.0 mg/kg/injection, schedule: Q01DX009 (ip), vehicle: water
[6] = dose: 50.0 mg/kg/injection, schedule: Q01DX009 (ip), vehicle: Klucel (hydroxypropylcellulose) (HPC)
[7] = dose: 100.0 mg/kg/injection, schedule: Q01DX009 (ip), vehicle: Klucel (hydroxypropylcellulose) (HPC)
[8] = dose: 200.0 mg/kg/injection, schedule: Q01DX009 (ip), vehicle: Klucel (hydroxypropylcellulose) (HPC)
[9] = dose: 50.0 mg/kg/injection, schedule: Q01DX005 (ip), vehicle: Klucel (hydroxypropylcellulose) (HPC)
[10] = dose: 100.0 mg/kg/injection, schedule: Q01DX005 (ip), vehicle: Klucel (hydroxypropylcellulose) (HPC)
[11] = dose: 200.0 mg/kg/injection, schedule: Q01DX005 (ip), vehicle: Klucel (hydroxypropylcellulose) (HPC)
[12] = dose: 100.0 mg/kg/injection, schedule: Q04DX003 (ip), vehicle: saline with Tween-80
[13] = dose: 400.0 mg/kg/injection, schedule: Q04DX003 (ip), vehicle: saline with Tween-80
[14] = dose: 50.0 mg/kg/injection, schedule: Q01DX005 (ip), vehicle: saline
[15] = dose: 100.0 mg/kg/injection, schedule: Q01DX005 (ip), vehicle: saline
[16] = dose: 200.0 mg/kg/injection, schedule: Q04DX003 (ip), vehicle: saline with Tween-80
[17] = dose: 100.0 mg/kg/injection, schedule: Q01DX009 (ip), vehicle: saline with Tween-80

Measured: T/C

COc1ccc(NN=O)cn1
inactive: dose: 1.56 mg/kg/injection, schedule: Q01DX009 (ip), vehicle: water 100 % of control | dose: 3.12 mg/kg/injection, schedule: Q01DX009 (ip), vehicle: water 100 % of control and 105 % of control | dose: 6.25 mg/kg/injection, schedule: Q01DX009 (ip), vehicle: water 99 % of control and 106 % of control | [1] 106 % of control and 107 % of control and 98 % of control | [2] 115 % of control and 122 % of control and 97 % of control | [3] 114 % of control and 122 % of control | [4] 122 % of control | [5] 121 % of control

ClCCN(CCCl)c1ccc2c(c1)Cc1cc(Br)ccc1-2
inactive: [6] 107 % of control | [7] 110 % of control | [8] 106 % of control | dose: 400.0 mg/kg/injection, schedule: Q01DX009 (ip), vehicle: Klucel (hydroxypropylcellulose) (HPC) 110 % of control

NC(=O)c1ccc([N+](=O)[O-])o1
inactive: dose: 12.5 mg/kg/injection, schedule: Q01DX009 (ip), vehicle: saline 99 % of control | dose: 25.0 mg/kg/injection, schedule: Q01DX009 (ip), vehicle: saline 100 % of control | dose: 50.0 mg/kg/injection, schedule: Q01DX009 (ip), vehicle: saline 95 % of control | dose: 100.0 mg/kg/injection, schedule: Q01DX009 (ip), vehicle: saline 108 % of control

Cc1[nH]c2ccc(N(C)C)cc2c(=O)c1CN1CCCCC1
inactive: [6] 106 % of control | [7] 100 % of control | [8] 108 % of control

COC1=C(N=[N+]=[N-])C(=O)C(OC)=C(N=[N+]=[N-])C1=O
inactive: dose: 5.0 mg/kg/injection, schedule: Q01DX009 (ip), vehicle: saline with Tween-80 90 % of control | dose: 10.0 mg/kg/injection, schedule: Q01DX009 (ip), vehicle: saline with Tween-80 90 % of control | dose: 20.0 mg/kg/injection, schedule: Q01DX009 (ip), vehicle: saline with Tween-80 100 % of control

OC1CC2c3ccccc3C1c1ccccc12 (stereo unspecified)
inactive: [9] 95 % of control | [10] 99 % of control | [11] 100 % of control

Nc1nc(N)c(N=O)c(Nc2ccc(Br)cc2)n1
inactive: [12] 91 % of control | [13] 95 % of control

CC(C)(C)N1C(=O)C(c2ccccc2)(c2ccccc2)C1/C=C/c1ccccc1 (stereo unspecified)
inactive: [9] 93 % of control | [10] 90 % of control

O=C(O)C(CS)NSc1ccccc1[N+](=O)[O-] (stereo unspecified)
inactive: dose: 60.0 mg/kg/injection, schedule: Q01DX005 (ip), vehicle: saline with Tween-80 111 % of control | dose: 120.0 mg/kg/injection, schedule: Q01DX005 (ip), vehicle: saline with Tween-80 112 % of control | dose: 240.0 mg/kg/injection, schedule: Q01DX005 (ip), vehicle: saline with Tween-80 102 % of control

S=P1(CNc2ccccc2)CN(c2ccccc2)CN(c2ccccc2)C1
inactive: dose: 50.0 mg/kg/injection, schedule: Q01DX001 (ip), vehicle: saline with Tween-80 100 % of control | dose: 100.0 mg/kg/injection, schedule: Q01DX001 (ip), vehicle: saline with Tween-80 95 % of control | dose: 200.0 mg/kg/injection, schedule: Q01DX001 (ip), vehicle: saline with Tween-80 100 % of control

CC(=O)/C(=C\C=C\c1ccccc1)C(=O)CCN(C)C
inactive: [14] 98 % of control | [15] 109 % of control | dose: 200.0 mg/kg/injection, schedule: Q01DX005 (ip), vehicle: saline 118 % of control

Cc1ncn2cnnc2c1C
inactive: [12] 89 % of control | [16] 95 % of control

Cc1c(-c2ccccc2)ccnc1/C=N/NC(=S)NCCc1ccccc1
inactive: [17] 101 % of control and 95 % of control

O=C(O)c1nn(Cc2ccc(Cl)cc2)c2ccccc12
inactive: dose: 50.0 mg/kg/injection, schedule: Q01DX009 (ip), vehicle: saline with Tween-80 109 % of control | [17] 103 % of control | dose: 200.0 mg/kg/injection, schedule: Q01DX009 (ip), vehicle: saline with Tween-80 110 % of control

Cc1ccc(S(=O)(=O)c2cncnc2N)cc1
inactive: dose: 100.0 mg/kg/injection, schedule: Q01DX001 (ip), vehicle: saline 101 % of control | dose: 200.0 mg/kg/injection, schedule: Q01DX001 (ip), vehicle: saline 110 % of control | dose: 400.0 mg/kg/injection, schedule: Q01DX001 (ip), vehicle: saline 110 % of control

CC1(C)NC(=O)C2(CC(O)C(O)C(OC(=O)c3ccccc3)C2)O1 (stereo unspecified)
inactive: dose: 25.0 mg/kg/injection, schedule: Q01DX005 (ip), vehicle: saline 102 % of control | [14] 94 % of control | [15] 99 % of control

COP(=O)(OC)/C(C)=N/NS(=O)(=O)c1ccc(C)cc1
inactive: dose: 12.5 mg/kg/injection, schedule: Q01DX009 (ip), vehicle: other 91 % of control | dose: 25.0 mg/kg/injection, schedule: Q01DX009 (ip), vehicle: other 91 % of control | dose: 50.0 mg/kg/injection, schedule: Q01DX009 (ip), vehicle: other 99 % of control | dose: 100.0 mg/kg/injection, schedule: Q01DX009 (ip), vehicle: other 100 % of control | dose: 200.0 mg/kg/injection, schedule: Q01DX009 (ip), vehicle: other 98 % of control | dose: 400.0 mg/kg/injection, schedule: Q01DX009 (ip), vehicle: other 94 % of control

CCSC(SCC)C(NC(C)=O)C(O)C(O)C(O)CO (stereo unspecified)
inactive: [1] 114 % of control | [2] 113 % of control | [3] 107 % of control | [4] 109 % of control | [5] 106 % of control

Cc1cc(/C=C2/OC(=O)c3ccccc32)cc(C)c1O
inactive: dose: 100.0 mg/kg/injection, schedule: Q04DX002 (ip), vehicle: saline 94 % of control | dose: 200.0 mg/kg/injection, schedule: Q04DX002 (ip), vehicle: saline 97 % of control | dose: 400.0 mg/kg/injection, schedule: Q04DX002 (ip), vehicle: saline 97 % of control

Cc1nn(C)c(=S)[nH]c1=O
inactive: [9] 103 % of control | dose: 50.0 mg/kg/injection, schedule: Q01DX005 (ip), vehicle: saline with Tween-80 105 % of control | [10] 95 % of control | dose: 100.0 mg/kg/injection, schedule: Q01DX005 (ip), vehicle: saline with Tween-80 106 % of control | [11] 110 % of control | dose: 200.0 mg/kg/injection, schedule: Q01DX005 (ip), vehicle: saline with Tween-80 103 % of control

CCCCCCCC(=O)Nc1cc(C)ccc1C
inactive: [12] 100 % of control | [16] 86 % of control | [13] 90 % of control

Cc1ccc(/C=C(\NC(=O)c2ccc(C)cc2)C(=O)O)cc1
inactive: [9] 114 % of control | [10] 114 % of control | [11] 107 % of control
